This is an account of results in ChEMBL document CHEMBL1123583 (J Med Chem, 1987).

Each structure is given as a SMILES string.

Data set [1] can be described thus: Acid dissociation constant was determined for the compound. It counts as ADME.
Data set [2] addresses Histamine H2 receptor (Cavia porcellus) (UniProt P47747).
For data set [3] the target is unchanged. This is another data set of the same source.
Data set [4] has the same target. The source holds these as a separate data set.
The target in data set [5] is T1, Histamine H2 receptor (Cavia porcellus, UniProt P47747). Put plainly: Antagonistic activity of guinea pig Histamine H2 receptor expressed as pA2 at pH 7.0. It counts as functional. To be noted: read-out: pA2 (converted).
Data set [6] addresses T1, Histamine H2 receptor. The data set is described as follows: Antagonistic activity of guinea pig Histamine H2 receptor expressed as pA2 at pH 7.4. It is filed as functional. The settings on record: read-out: pA2 (converted).
For data set [7], the target named is T1, Histamine H2 receptor. The data set is described as follows: Antagonistic activity of guinea pig Histamine H2 receptor expressed as pA2 at pH 7.8. It is filed as functional. To be noted: read-out: pA2 (converted).

Histamine H2 receptor (Cavia porcellus), sequence (P47747 whole entry): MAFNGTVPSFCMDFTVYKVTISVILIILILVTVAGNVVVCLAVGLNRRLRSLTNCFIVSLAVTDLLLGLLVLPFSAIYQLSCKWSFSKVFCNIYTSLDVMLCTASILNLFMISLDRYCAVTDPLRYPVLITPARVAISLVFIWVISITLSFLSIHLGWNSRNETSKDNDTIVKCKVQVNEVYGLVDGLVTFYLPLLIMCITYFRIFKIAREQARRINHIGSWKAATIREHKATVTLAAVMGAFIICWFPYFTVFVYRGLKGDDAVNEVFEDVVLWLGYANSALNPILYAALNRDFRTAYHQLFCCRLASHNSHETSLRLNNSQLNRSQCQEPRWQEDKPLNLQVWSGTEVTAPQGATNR
T1 sequence (P47747 whole entry): as above

On to `CN/C(=N/CCSCc1nc[nH]c1C)NC#N` [CIMETIDINE], for which the pKa in data set [1] (read-out: pKa1) worked out at 6.98.

With `NCCc1c[nH]cn1` [HISTAMINE], the pD2 in data set [2] amounted to 5.81; in data set [3] it was 5.88; in data set [4], 5.89. For the same molecule, the pKa in data set [1] (read-out: pKa1) came out at 9.57; in data set [1] (read-out: pKa2), 6.1.

`CC(C)/N=C/Nc1ccc(-c2c[nH]cn2)cc1` [MIFENTIDINE]: the values for the pKa in data set [1] (read-out: pKa1) and in data set [1] (read-out: pKa2) were 8.82 and 5.64, respectively. The Kb is 45.7 nM at Histamine H2 receptor [5], 17.4 nM at Histamine H2 receptor [6] and 11.7 nM on Histamine H2 receptor [7].
